In patent US7988956B2, “Hydrolytically degradable carbamate derivatives of poly(ethylene glycol)” (Nektar Therapeutics, priority 1999, dated 2011):

Tests used:
[1] = test system: Micrococcus lysodeikticus; assay: Bioactivity measurement of reversible lysozyme conjugate (Sigma HEW lysozyme protocol, decrease in absorbance at 450 nm); type: biochemical; conditions: 66 mM sodium phosphate buffer pH 6.24
Procedure: Bioactivity of free lysozyme, PEG conjugates of lysozyme and lysozyme recovered from hydrolysis of the conjugates were measured by an assay from the standard protocol of Sigma for hen's egg white (HEW) lysozyme EC.3.2.1.17. A solution containing the unmodified or PEG-modified lysozyme was diluted to 5.5 μg/ml in a 66 mM sodium phosphate buffer (pH 6.24). A suspension of 1.5 mg Micrococcus lysodeikticus in 10 ml of 66 mM phosphate buffer (pH 6.24) was allowed to equilibrate at room temperature until the absorbance at 450 nm was constant. Then 0.1 ml of a lysozyme solution was placed in a 1 cm light path quatz cuvette containing 2.5 ml of the substrate suspension. The decrease in the absorbance at 450 nm was recorded and the activity was determined from the maximum linear rate. Eighty-two percent of lysozyme bioactivity was recovered from the m-PEG-lysozyme conjugate, while the mPEG lysozyme had undetectable bioactivity prior to hydrolysis.

[2] = Hydrolysis of the PEG conjugate of lysozyme monitored by capillary electrophoresis; type: physicochemical; conditions: after hydrolysis for 10 days at pH 7 and 37° C.; CE, FIG. 1 Curve B
Procedure: The conjugates prepared as described above were placed at 37° C. and at room temperature and hydrolysis was monitored by capillary electrophoresis (CE).
CE conditions: A solution of 25 mM phosphate buffer, containing 0.1 mg/ml PEO 600K, pH 2.7 was flushed through the capillary for approximately 15-20 min. A voltage of 15 kV was applied until a smooth baseline was obtained. The 25 mM phosphate buffer solution was again flushed through for approximately 5 min and the capillary was then ready for sample injection. The sample, which was adjusted to pH 2 by a phosphate buffer (0.1 M, pH 2), was injected hydrostatically for about […] at a height of approximately 6 inches. A voltage of 15 kV was applied throughout the run with a current between 24 and 30 μA. The protein and PEG-protein conjugate were detected by a UV monitor at 214 nm. The CE instrument consists of a high-voltage power supply (Spellman CZE1000R), a fused silica capillary (75 μm i.d., 360 μm o.d., Polymicro Technologies, Phoenix, Ariz.) and a linear 200 UV/VIS monitor supplied with a deuterium lamp and a capillary flow cell. The total length of the capillary was 64.5 cm, with a 1 cm optical window at 40 cm from the anode. UV data was retrieved and stored using LabVIEW version 4.0.1 software (National Instruments).

## mPEG-lysozyme conjugate: mPEG-lysozyme conjugate prepared with N-mPEG benzamide-m-succimidyl carbonate; mono, di and tri PEGylated lysozyme
[1]; PEG conjugate before hydrolysis
  bioactivity prior to hydrolysis: undetectable
[1]; lysozyme recovered from hydrolysis of the conjugate
  lysozyme bioactivity recovered from the conjugate: Eighty-two
[2]
  free lysozyme released: more than 85%
